Laboratory results taken from ChEMBL document CHEMBL1201862, “PubChem BioAssay data set” (2004).
Where “and” joins values, the source holds several entries; their conditions need not be identical. Identical values can stand only once.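 48-hour exposure; five concentrations; linearly interpolated endpoints. Here, GI50 denotes the concentration required for 50% inhibition of growth.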 Calls of active or inactive are those of the source. Cut-off read from the data, not from the text of the source: active = GI50 up to about 1.1 µM and inactive = higher.

Experiments:
Experiment in all cases: growth of human tumour cells (NCI), 48 h
[1] = test system: SF-295
[2] = test system: DU-145
[3] = test system: Hs-578T
[4] = test system: HOP-62
[5] = test system: K562
[6] = test system: OVCAR-8
[7] = test system: NCI/ADR-RES
[8] = test system: MDA-N
[9] = test system: HCT-15
[10] = test system: RPMI-8226
[11] = test system: UACC-257
[12] = test system: RXF 393
[13] = test system: NCI-H522
[14] = test system: SF-268
[15] = test system: 786-0
[16] = test system: MCF7
[17] = test system: SNB-19
[18] = test system: TK-10
[19] = test system: HCC 2998

Structure (SMILES) | GI50 [1] | GI50 [2] | GI50 [3] | GI50 [4] | GI50 [5] | GI50 [6] | GI50 [7] | GI50 [8] | GI50 [9] | GI50 [10] | GI50 [11] | GI50 [12] | GI50 [13] | GI50 [14] | GI50 [15] | GI50 [16] | GI50 [17] | GI50 [18] | GI50 [19]
COC(=O)C1=C(C)NC2=C(C(=O)c3ccccc32)C1c1c[nH]nc1-c1ccccc1 (stereo unspecified) | > 100 µM (inactive) | > 100 µM (inactive) | 21.5 µM (inactive) | 64.9 µM (inactive) | > 100 µM (inactive) | 38.1 µM (inactive) | 42.1 µM (inactive) | 51.5 µM (inactive) | 62.5 µM | 49 µM (inactive) | 70.5 µM (inactive) | 43.4 µM (inactive) | 19.7 µM (inactive) | 26.2 µM (inactive) | > 100 µM (inactive) | 44.7 µM (inactive) | 41.5 µM (inactive) |  | 
CN(C)CCCn1c(Cc2ccccc2)nc2cc(C(F)(F)F)ccc21 | 17.1 µM (inactive) | 67.5 µM (inactive) | 45.6 µM (inactive) | 26.4 µM (inactive) | 18.5 µM (inactive) | 39.7 µM (inactive) | 65.6 µM (inactive) | 18.3 µM (inactive) | 24.8 µM |  | 18.1 µM (inactive) | 21.2 µM (inactive) | 24.4 µM (inactive) | 53.8 µM (inactive) | 19.1 µM (inactive) | 20.5 µM (inactive) | 24.1 µM (inactive) | 28.8 µM (inactive) | 
COC(=O)CCc1ccc2c(c1)CCC2 | > 100 µM (inactive) | > 100 µM (inactive) | > 100 µM (inactive) | > 100 µM (inactive) |  | > 100 µM (inactive) | > 100 µM (inactive) | > 100 µM (inactive) | > 100 µM | > 100 µM (inactive) | > 100 µM (inactive) |  | > 100 µM (inactive) | > 100 µM (inactive) | > 100 µM (inactive) | > 100 µM (inactive) | > 100 µM (inactive) | > 100 µM (inactive) | > 100 µM (inactive)
Cn1c2c(c3c(=O)[nH]ncc31)CCc1ccccc1-2 | 32.9 µM (inactive) | 35.7 µM (inactive) | 10.2 µM (inactive) | 78.5 µM (inactive) | 29.8 µM (inactive) | 57.3 µM (inactive) | 27.4 µM (inactive) | 25.9 µM (inactive) | 24.8 µM | 25.5 µM (inactive) | 17.9 µM (inactive) | 18.8 µM (inactive) | 42.5 µM (inactive) | 31.2 µM (inactive) | 25.4 µM (inactive) | 21.6 µM (inactive) | 45.8 µM (inactive) | 17.7 µM (inactive) | 
Cc1ccc(/C=C2/N/C(=N\N=C/C(O)C(O)C(O)CO)NC2=O)cc1 (stereo unspecified) | > 100 µM (inactive) | > 100 µM (inactive) | > 100 µM (inactive) | > 100 µM (inactive) | 55.5 µM (inactive) and 47.8 µM (inactive) | > 100 µM (inactive) | > 100 µM (inactive) | > 100 µM (inactive) | 89.9 µM and 79.1 µM | > 100 µM (inactive) | > 100 µM (inactive) | > 100 µM (inactive) | 71.6 µM (inactive) | > 100 µM (inactive) | > 100 µM (inactive) | > 100 µM (inactive) | > 100 µM (inactive) | > 100 µM (inactive) | 
O=C1CSC(c2ccc(Cl)cc2)N1c1ccc(-n2c(-c3ccccc3)nc3ccccc3c2=O)cc1 (stereo unspecified) | 46.1 µM (inactive) | > 10 µM (inactive) | 52.7 µM (inactive) | > 100 µM (inactive) | 36.8 µM (inactive) | > 100 µM (inactive) | 23.8 µM (inactive) | > 100 µM (inactive) | 20.4 µM | > 100 µM (inactive) | > 100 µM (inactive) |  | 25.9 µM (inactive) | 88.1 µM (inactive) | 87.1 µM (inactive) | 30.8 µM (inactive) | > 100 µM (inactive) | > 100 µM (inactive) | 34.5 µM (inactive)
COc1cc2c(cc1OC)C1C=NC(C2)c2cc(OC)c(OC)cc21 (stereo unspecified) | > 100 µM (inactive) | > 100 µM (inactive) | > 100 µM (inactive) | > 100 µM (inactive) | 54.2 µM (inactive) | 96.2 µM (inactive) | > 100 µM (inactive) | > 100 µM (inactive) | 85.9 µM | 60.3 µM (inactive) | > 100 µM (inactive) |  | 46.3 µM (inactive) | > 100 µM (inactive) | > 100 µM (inactive) | 60.1 µM (inactive) | > 100 µM (inactive) | > 100 µM (inactive) | > 100 µM (inactive)
CC(C)OC(=O)NNc1cc(Cl)ccc1Cl | 62.8 µM (inactive) | > 100 µM (inactive) | 81.5 µM (inactive) | > 100 µM (inactive) | 19.2 µM (inactive) | > 100 µM (inactive) | > 100 µM (inactive) | 73.6 µM (inactive) | 91.2 µM | 44.5 µM (inactive) | 39.7 µM (inactive) |  | 31.5 µM (inactive) | 44.8 µM (inactive) | > 100 µM (inactive) | 57.9 µM (inactive) | > 100 µM (inactive) | 36.6 µM (inactive) | 61 µM (inactive)
